The record followed here is patent publication US10457659B2, “Compositions and methods for increasing proliferation of adult salivary stem cells” (The Board of Trustees of the Leland Stanford Junior …, priority 2011, dated 2019).

“Also recorded” adds a separate entry of the source.

In experiment [1] the target is T1, human ALDH3 recombinant enzyme (Homo sapiens, UniProt P30838).
T1 sequence (P30838 1-453): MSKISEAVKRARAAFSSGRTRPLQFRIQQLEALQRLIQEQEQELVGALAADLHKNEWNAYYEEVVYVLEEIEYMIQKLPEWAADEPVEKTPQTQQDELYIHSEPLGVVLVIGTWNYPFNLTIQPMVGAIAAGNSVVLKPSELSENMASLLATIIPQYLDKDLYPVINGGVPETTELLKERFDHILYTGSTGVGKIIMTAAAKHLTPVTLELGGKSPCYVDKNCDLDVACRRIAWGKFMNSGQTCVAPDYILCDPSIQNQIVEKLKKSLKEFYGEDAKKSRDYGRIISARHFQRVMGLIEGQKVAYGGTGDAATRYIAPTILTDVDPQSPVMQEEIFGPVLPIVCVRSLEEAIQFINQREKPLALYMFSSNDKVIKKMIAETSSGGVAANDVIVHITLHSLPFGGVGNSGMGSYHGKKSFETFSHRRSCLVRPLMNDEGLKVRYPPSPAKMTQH
The experiment in a line: Catalytic activity of recombinant ALDH3 enzyme (isozyme selectivity, FIG. 3A). The conditions noted are these: n=3, p<0.01. Type of experiment: biochemical. The procedure: (§1) As an example of an assay for dehydrogenase activity, ALDH aldehyde dehydrogenase activity is assayed at 25° C. in 50 mM sodium pyrophosphate HCl buffer, pH 9.0, 100 mM sodium phosphate buffer, pH 7.4, or 50 mM sodium phosphate buffer, pH 7.4, where the buffer includes NAD^+ (e.g., 0.8 mM NAD^+, or higher, e.g., 1 mM, 2 mM, or 5 mM NAD^+) and an aldehyde substrate such as 14 μM propionaldehyde. Reduction of NAD^+ is monitored at 340 nm using a spectrophotometer, or by fluorescence increase using a fluoromicrophotometer Enzymatic activity can be assayed using a standard spectrophotometric method, e.g., by measuring a reductive reaction of the oxidized form of nicotinamide adenine dinucleotide (NAD^+) to its reduced form, NADH, at 340 nm, as described in US 2005/0171043; and WO 2005/057213, and as depicted schematically in FIG. 4. In an exemplary assay, the reaction is carried out at 25° C. in […] pyrophosphate (NaPPi) buffer, pH 9.0, 2.4 mM NAD^+ and 10 mM acetaldehyde as the substrate. Enzymatic activity is measured by a reductive reaction of NAD^+ to NADH at 340 nm, as described in US 2005/0171043; and WO 2005/057213. Alternatively, the production of NADH can be coupled with another enzymatic reaction that consumes NADH and that provides for a detectable signal. […]

The target of another experiment is T2, ALDH1 (Homo sapiens, UniProt P00352).
T2 sequence (P00352 1-501): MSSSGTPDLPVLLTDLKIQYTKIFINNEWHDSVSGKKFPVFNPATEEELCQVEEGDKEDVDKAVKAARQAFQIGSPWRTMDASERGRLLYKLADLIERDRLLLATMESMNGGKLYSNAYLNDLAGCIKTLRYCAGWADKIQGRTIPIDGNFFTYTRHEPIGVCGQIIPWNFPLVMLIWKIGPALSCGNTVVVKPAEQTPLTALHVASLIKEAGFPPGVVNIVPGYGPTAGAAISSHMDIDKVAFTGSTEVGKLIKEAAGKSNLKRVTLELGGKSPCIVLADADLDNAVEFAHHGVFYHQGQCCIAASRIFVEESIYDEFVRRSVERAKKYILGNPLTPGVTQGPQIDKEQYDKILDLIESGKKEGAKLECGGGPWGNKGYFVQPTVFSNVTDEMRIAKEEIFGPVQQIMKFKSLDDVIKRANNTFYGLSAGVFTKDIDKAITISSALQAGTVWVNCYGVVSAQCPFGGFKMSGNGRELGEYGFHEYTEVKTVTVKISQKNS
Put plainly: Catalytic activity of ALDH1 isozyme (isozyme selectivity, FIG. 3A). In kind it is biochemical. The procedure: as §1

Another experiment addresses T3, ALDH2 (Homo sapiens, UniProt P05091).
T3 sequence (P05091 18-517): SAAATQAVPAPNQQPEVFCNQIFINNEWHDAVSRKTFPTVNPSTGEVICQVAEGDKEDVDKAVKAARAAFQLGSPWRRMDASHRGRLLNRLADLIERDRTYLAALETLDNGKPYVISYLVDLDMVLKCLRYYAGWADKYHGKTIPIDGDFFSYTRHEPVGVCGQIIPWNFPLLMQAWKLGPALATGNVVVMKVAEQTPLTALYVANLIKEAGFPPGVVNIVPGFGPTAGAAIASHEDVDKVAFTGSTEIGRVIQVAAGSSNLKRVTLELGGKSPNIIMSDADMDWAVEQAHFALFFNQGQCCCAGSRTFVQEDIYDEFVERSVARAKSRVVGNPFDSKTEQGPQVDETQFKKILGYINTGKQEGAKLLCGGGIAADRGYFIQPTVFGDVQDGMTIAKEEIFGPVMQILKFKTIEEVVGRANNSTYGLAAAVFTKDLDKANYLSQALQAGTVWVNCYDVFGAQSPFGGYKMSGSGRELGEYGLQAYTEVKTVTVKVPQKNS
The experiment in a line: Catalytic activity of ALDH2 isozyme (isozyme selectivity, FIG. 3A). In kind it is biochemical. As for the experimental part: as §1

In a further experiment the test system is ALDH5. Put plainly: Catalytic activity of ALDH5 isozyme (isozyme selectivity, FIG. 3A). In kind it is biochemical. The procedure: as §1
The next experiment concerns the target T4, ALDH3 (Mus musculus, UniProt P47739).
T4 construct: enhanced ALDH3 enzyme activity by 29% in esophagus cell homogenate; from tissue; host or cells: esophagus cell homogenate of C57BL/6 mice
T4 sequence (P47739 1-453): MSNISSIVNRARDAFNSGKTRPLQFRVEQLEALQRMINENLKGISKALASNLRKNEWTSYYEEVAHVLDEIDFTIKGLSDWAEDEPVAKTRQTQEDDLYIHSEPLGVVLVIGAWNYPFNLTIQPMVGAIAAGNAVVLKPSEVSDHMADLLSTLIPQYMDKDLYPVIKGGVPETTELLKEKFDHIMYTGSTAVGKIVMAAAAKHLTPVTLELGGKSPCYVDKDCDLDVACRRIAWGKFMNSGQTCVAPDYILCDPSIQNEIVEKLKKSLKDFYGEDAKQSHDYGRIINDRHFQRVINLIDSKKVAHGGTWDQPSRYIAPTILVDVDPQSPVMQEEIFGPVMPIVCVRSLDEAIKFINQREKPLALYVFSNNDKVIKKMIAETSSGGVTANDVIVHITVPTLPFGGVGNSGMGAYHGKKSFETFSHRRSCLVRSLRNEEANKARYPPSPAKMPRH
Put plainly: ALDH3 enzyme activity in esophagus cell homogenate after osmotic pump infusion into mice (FIG. 3B). Type of experiment: in vivo. The conditions noted are these: 34 mg/kg/day, n=5, p<0.05.

In another experiment the test system is c-kit+/CD90+ SMG cells. The experiment in a line: FACS count of c-Kit+/CD90+ submandibular gland cells after 7 days of infusion in mice (FIG. 3C). In kind it is in vivo, mouse. The procedure: All animal procedures were approved by the Institutional Animal Care and Use Committee at Stanford University. Female C57BL/6 mice (n=10, 4-5 weeks old, Jackson Laboratory, Sacramento, Calif.) were used for ALDH3 activator study.
(§2) An ALDH3 activator (Alda89, 100 ug/ml, n=5) and Vehicle control ([…]; 50% DMSO and 50% PEG400, n=5) was injected into ALZET osmotic pumps (DURECT Corporation, Cupertino, Calif.). The osmotic pumps were implanted subcutaneously into C57BL/6 mice. The mice were euthanized after 7 days and salivary gland tissues were collected for analysis of salsiphere formation and BrdU incorporation as described above. In addition, FACs analysis for anti-mouse c-Kit and anti-mouse CD90 (BD Biosciences, San Jose, Calif.) cell population was also performed in pooled SMG samples.

The subject of a further experiment is SMG salispheres. The experiment in a line: Salisphere formation and BrdU incorporation of unselected SMG cells from treated mice (FIG. 3D). In kind it is in vivo, mouse. The procedure:
After 3 days of culture, cells were stained with Brdu staining kit according to the manufacturer's instructions (Invitrogen, Carlsbdad, Calif.). The total number of salispheres and BrdU positive salispheres per 96 well were counted under light microscopy. For each group 20 wells were counted and experiments were repeated 3 times.
as §2
For orientation: Dividing cells build labelled thymidine or BrdU into new DNA.

Consider `C=CCc1ccc2c(c1)OCO2` [Alda-89, 5-(2-propenyl)-1,3-benzodioxole], for which the “catalytic activity of human ALDH3 recombinant enzyme” value in experiment [1] is 304.4±7.1 % of control. The “effect on ALDH1 isozyme catalytic activity” value at ALDH1 was “no effect”. In addition, on ALDH2, the “effect on ALDH2 isozyme catalytic activity” value is reported as “no effect”. Further, in the experiment with ALDH5, the “effect on ALDH5 isozyme catalytic activity” value is “no effect”. In addition, at ALDH3, the “enhancement of ALDH3 enzyme activity in esophagus cell homogenate vs vehicle control” value came to 29%. Besides, in the experiment with c-kit+/CD90+ SMG cells (7 days of treatment), the “change in number of c-kit+/CD90+ SMG cells compared to vehicle control” value is “more than doubling; also recorded: more than doubled”. Also, the “number of c-kit+/CD90+ cells in SMG” value in the experiment with c-kit+/CD90+ SMG cells (7 days of treatment by subcutaneous osmotic pump, vehicle 7.37±0.45%, p<0.05) is 17.8±0.95%. In the experiment with SMG salispheres (adult mice, summary statement), the “change in BrdU+ salisphere number after treatment of adult mice” value is “more than doubling”. Also, the “number of BrdU+ spheres” value in the experiment with SMG salispheres (unselected SMG cells from mice treated 7 days, 3 days of culture, vehicle 66±1.42, p<0.05) was 91±0.83 spheres/5000 cells. The “total number of salispheres” value in the experiment on SMG salispheres (unselected SMG cells from mice treated 7 days, 3 days of culture, vehicle 86±0.58, p<0.05) amounted to 121±0.83 spheres/5000 cells.
